# Source: patent US9765074B2, “Inhibitors of the renal outer medullary potassium channel” (Merck Sharp & Dohme Corp., priority 2013, dated 2017)
# Biological target: T1, hROMK (hKir1.1) (Homo sapiens, UniProt P48048)
# T1 construct: expressed in transfected cells
# T1 sequence (P48048 1-391): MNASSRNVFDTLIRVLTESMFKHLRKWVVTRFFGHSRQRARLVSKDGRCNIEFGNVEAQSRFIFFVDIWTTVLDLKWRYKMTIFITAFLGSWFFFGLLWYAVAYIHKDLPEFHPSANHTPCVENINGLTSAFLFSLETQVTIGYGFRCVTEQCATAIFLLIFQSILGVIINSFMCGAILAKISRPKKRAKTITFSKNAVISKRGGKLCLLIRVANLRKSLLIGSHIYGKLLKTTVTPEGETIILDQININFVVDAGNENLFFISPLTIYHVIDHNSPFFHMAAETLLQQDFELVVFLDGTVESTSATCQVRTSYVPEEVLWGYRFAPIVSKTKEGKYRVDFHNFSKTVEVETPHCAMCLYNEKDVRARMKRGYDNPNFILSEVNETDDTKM
# Assay: Thallium Flux Assay (ROMK channel functional thallium flux, FLIPR-Tetra)
# Assay type: cell-based
# Settings: HEK293 cells stably expressing hROMK (hKir1.1); 30 min compound incubation
# In short: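 HEK293 cells stably expressing hKir1.1, loaded with FluxOR dye for 90 min, then preincubated with compound for 30 min at ambient temperature with 0.3 mM ouabain and probenecid. Stimulated with 3 mM thallium/0.3 mM potassium (final); fluorescence read ~10 min. Normalized to 3 μM reference ROMK inhibitor; IC50 from inhibition of flux.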
row,SMILES,IC50
1,"CC1=C(N2CCC3(CCN(C[C@H](O)c4cccc(-n5cnnn5)c4)CC3)C2=O)COC1=O [Example 61, 8-{(2R)-2-hydroxy-2-[3-(1H-tetrazol-1-yl)phenyl]ethyl}-2-(4-methyl-5-oxo-2,5-dihydrofuran-3-yl)-1-oxo-2-aza-8-azoniaspiro[4.5]decane]",70 nM
2,"CC1=C(N2CCC3(CCN(C[C@@H](O)c4cccc(-n5cnnn5)c4)CC3)C2=O)COC1=O [Example 62, 8-{(2S)-2-hydroxy-2-[3-(1H-tetrazol-1-yl)phenyl]ethyl}-2-(4-methyl-5-oxo-2,5-dihydrofuran-3-yl)-1-oxo-2-aza-8-azoniaspiro[4.5]decane]",40 nM
3,"CC1=C(N2CCC3(CCN(C[C@H](O)c4nnc(-n5cnnn5)c(C)c4C)CC3)C2=O)COC1=O [Example 69, 8-{(2S)-2-[4,5-dimethyl-6-(1H-tetrazol-1-yl)pyridazin-3-yl]-2-hydroxyethyl}-2-(4-methyl-5-oxo-2,5-dihydrofuran-3-yl)-1-oxo-2-aza-8-azoniaspiro[4.5]decane]",40 nM
4,"CC1=C(N2CCC3(CCN(C[C@@H](O)c4nnc(-n5cnnn5)c(C)c4C)CC3)C2=O)COC1=O [Example 70, 8-{(2R)-2-[4,5-dimethyl-6-(1H-tetrazol-1-yl)pyridazin-3-yl]-2-hydroxyethyl}-2-(4-methyl-5-oxo-2,5-dihydrofuran-3-yl)-1-oxo-2-aza-8-azoniaspiro[4.5]decane]",30 nM
5,"CC1=C(N2CCC3(CCN(C[C@@H](O)c4cc(-n5cnnn5)ccn4)CC3)C2=O)COC1=O [Example 71, 8-{(2R)-2-hydroxy-2-[4-(1H-tetrazol-1-yl)pyridin-2-yl]ethyl}-2-(4-methyl-5-oxo-2,5-dihydrofuran-3-yl)-1-oxo-2-aza-8-azoniaspiro[4.5]decane]",70 nM
6,"CC1=C(N2CCC3(CCN(C[C@H](O)c4cc(-n5cnnn5)ccn4)CC3)C2=O)COC1=O [Example 72, 8-{(2S)-2-hydroxy-2-[4-(1H-tetrazol-1-yl)pyridin-2-yl]ethyl}-2-(4-methyl-5-oxo-2,5-dihydrofuran-3-yl)-1-oxo-2-aza-8-azoniaspiro[4.5]decane]",40 nM
7,"CC1=C(N2CCC3(CCN(C[C@H](O)c4cccc(-n5cnnn5)n4)CC3)C2=O)COC1=O [Example 73, 8-{(2S)-2-hydroxy-2-[6-(1H-tetrazol-1-yl)pyridin-2-yl]ethyl}-2-(4-methyl-5-oxo-2,5-dihydrofuran-3-yl)-1-oxo-2-aza-8-azoniaspiro[4.5]decane]",170 nM
8,"CC1=C(N2CCC3(CCN(C[C@@H](O)c4cccc(-n5cnnn5)n4)CC3)C2=O)COC1=O [Example 74, 8-{(2R)-2-hydroxy-2-[6-(1H-tetrazol-1-yl)pyridin-2-yl]ethyl}-2-(4-methyl-5-oxo-2,5-dihydrofuran-3-yl)-1-oxo-2-aza-8-azoniaspiro[4.5]decane]",90 nM
9,"CC1=C(N2CCC3(CCN(C[C@H](O)c4cncc(-n5cnnn5)n4)CC3)C2=O)COC1=O [Example 75, 8-{(2S)-2-hydroxy-2-[6-(1H-tetrazol-1-yl)pyrazin-2-yl]ethyl}-2-(4-methyl-5-oxo-2,5-dihydrofuran-3-yl)-1-oxo-2-aza-8-azoniaspiro[4.5]decane]",440 nM
10,"CC1=C(N2CCC3(CCN(C[C@H](O)c4c(F)cc(-n5cnnn5)cc4F)CC3)C2=O)COC1=O [Example 76, 8-{(2R)-2-[2,6-difluoro-4-(1H-tetrazol-1-yl)phenyl]-2-hydroxyethyl}-2-(4-methyl-5-oxo-2,5-dihydrofuran-3-yl)-1-oxo-2-aza-8-azoniaspiro[4.5]decane]",20 nM
11,"C[C@H]1CC2(CCN(C[C@H](O)c3cnc(-n4cnnn4)cn3)CC2)C(=O)N1C1=CC(=O)OC1 [Example 77, (3S)-8-{(2S)-2-hydroxy-2-[5-(1H-tetrazol-1-yl)pyrazin-2-yl]ethyl}-3-methyl-1-oxo-2-(5-oxo-2,5-dihydrofuran-3-yl)-2-aza-8-azoniaspiro[4.5]decane]",10 nM
